# Results as given in patent US20030180345A1, “Compositions and methods for inhibiting islet dysfunction and autoimmune disorders” (priority 2000, published 2003).
# Entries after “also recorded” stand apart in the source; their conditions may differ.
# Assays:
# islet cells [1] = assay: Islet cell proliferation with maternal dietary taurine supplementation (BrdU immunostaining); type: in vivo, Wistar rats
# Description: Adult virgin female Wistar rats were caged overnight with males and copulation was verified the next morning. Animals were maintained at 25° C. with a 10 h-14 h dark-light cycle. Pregnant rats were divided into four groups and fed one of the following isocaloric diets, either with or without taurine supplemented in the drinking water. […] The composition of the basal and low protein diets were described previously by Snoeck et a/.1990 (Biol. Neonate 57, 107-118). The diets were purchased from Hope Farms (Woerden, Holland). Animals in both the groups had free access to water at all times. Animals were divided into four groups to assess various parameters at different time periods. Females were sacrificed at 21.5 days of gestation by decapitation and fetuses were removed in order to evaluate parameters at fetal day 21.5 (F 21.5). Alternatively, animals gave birth and offspring were sacrificed at post-natal day 12, 14 or 30 (PN 12, PN 14, and PN 30, respectively). Bromodeoxyuridine (BrdU) incorporation was evaluated by immunostaining as described by […] et al., (Endocrinology 1999;140: 4861-4873).
# [2] = taurine 0.3 mmol/l or 3 mmol/l; acellular
# Description: Nitric oxide is a reactive free radical which leads to peroxynitrite formation, another reactive free radical, by interaction with superoxide (NO+OO^−→ONOO^−). […] Luminol-derived chemiluminescence induced by peroxynitrite produced by the decomposition of sydnonimine (SIN-1) was evaluated to investigate the possibility that taurine quenched the peroxynitrite formed from NO.
# NOD mice [3] = assay: Gestational taurine supplementation in NOD mice: diabetes onset, insulitis and endocrine pancreas development; type: in vivo
# Description: Pregnant NOD mice (maintained as in Example 13) were supplemented with 2.5% of taurine in drinking water during gestation. Pups were either sacrificed at 14 days of age, and pancreata were collected and fixed for histology as depicted in FIG. 16, or followed until glucosurea was apparent.
# iNOS = assay: Islet iNOS immunoreactivity with dietary taurine supplementation; type: in vivo, Wistar rats; settings: all stages
# Description: Animals and diets were prepared as described in Example 8. The pancreas was removed, and the presence of Fas, Fas ligand, inducible nitric oxide synthase (iNOS) and vascular endothelial growth factor (VEGF) were evaluated in pancreatic sections using immunoreactivity.
# NOD mice [4] = assay: Insulitis in NOD mice at 12 weeks after taurine in maternal drinking water (pregnancy and lactation); type: in vivo; settings: for reduction of incidence of insulitis: 12 weeks of age, vs control animals
# Description: Pregnant NOD mice were maintained on a control diet either with or without taurine supplementation in the drinking water throughout pregnancy and lactation. Supplementation of taurine was stopped after weaning. At 12 weeks of age the animals were killed and examined for histological evidence of insulitis within the pancreatic islets. Mice which were examined and found to have evidence of insulitis, were then further scored as peri-islet (slight), less than 50% area of islet (medium) or more than 50% islet area (heavy), as indicative of the stage and/or severity of insulitis.
# fetal islet β cells = assay: Global cell death / mortality of cultured fetal islets (ethidium bromide permeability); type: cell-based; settings: SNP (100 μmol/l); pre-treated with taurine 0.3 or 3 mmol/l; both diet groups; dose dependent
# Description: Global cell death. Global cell death was analysed using a non-specific staining permeant probe. For this purpose, the culture medium was removed and the dishes were incubated in the dark with 1 ml of 20 μg/ml ethidium bromide for 20 min to stain permeabilized dead cells. The cultures were then fixed with 4% paraformaldehyde in PBS for 10 min, treated with 30% methanol for permeabilization of the remaining of the cells and then mounted in mowiol containing 20 μg/ml of Hoechst 33342, to stain the nuclei.
# Physiological and supraphysiological levels of each amino acid were tested. Taurine, if present was either 0.3 mmol/l (physiological) or 3 mmol/l (supraphysiological); methionine, if present was either 0.1 mmol/l (physiological) or 1 mmol/l (supraphysiological); and β-alanine, if present was either 0.3 mmol/l (physiological) or 3 mmol/l (supraphysiological). Supplemental amino acid levels were maintained in the culture medium during SNP treatment. […] Apoptosis was quantified by confocal microscopy using the TUNEL method described in Example 1. Mortality rate was quantified by confocal microscopy using permeant probes, as described in Example 1, to verify quantification of apoptotic rate for both C and LP diet treatments including SNP and taurine.
# fetal islet cells = assay: IL1β-induced apoptosis in cultured fetal islets (TUNEL); type: cell-based, Wistar rats; settings: IL1β 50 U/ml
# Description: The effect of in vitro taurine on the effect of IL1β-induced apoptosis was assessed. Fetal islets were isolated as described above in Example 1. On the 5th day of culture, islets were rinsed twice with serum free DME/F12 medium (1:1, v/v, Gibco, Paisley, Scotland) and were incubated in this medium supplemented with taurine at 0.3 or 3 mmol/l for 48 hours. For the final 24 hours of this incubation, IL1β (Endogen, Woburn, Mass.) was added to the incubation medium at a level of 50 U/ml. Apoptosis was quantified by confocal microscopy using TUNEL method, as outlined in Example 1.
# islet cells [5] = assay: Islet cell apoptosis with maternal dietary taurine supplementation (TUNEL); type: in vivo, Wistar rats
# Description: Animals and diets were prepared, and taurine supplementation in drinking water was conducted as described in Example 7. Islet cells were cultured and treated as described in Example 1. Islet cell apoptosis was determined using the TUNEL method, as described by […] et al., (Endocrinology 1999;140: 4861-4873). Four developmental stages were evaluated, namely: fetal day 21.5 ([…].5) or post-natal day 12 (PN12), 14 (PN14) or 30 (PN30).
# fetal islets = assay: Interaction of dietary and in vitro taurine on SNP- or IL1β-induced apoptosis of fetal islets; type: cell-based, Wistar rats
# Description: Animals and diets were prepared as described in Example 7. Pancreases were removed and islets were isolated from late gestation fetuses at day 21.5. Neoformed fetal islets obtained after five days of culture from the four diet groups (C, C+Taurine, LP, and LP+Taurine) were compared for their susceptibility to apoptosis following exposure to SNP (100 μmol/l), or IL1β (50 U/ml), with or without in vitro taurine at either physiological (0.3 mmol/l) or supraphysiological (3.0 mmol/l) levels.
smiles,measurement,setting,value
"NCCS(=O)(=O)O [taurine, 2-aminoethylsulfonic acid]",β cell proliferation rate (BrdU incorporation),"islet cells [1]; C+Taurine, 2.5% taurine in maternal drinking water",did not significantly increase
same,islet cell proliferation rate (BrdU incorporation),"islet cells [1]; LP+Taurine, 2.5% (weight/volume) taurine in maternal drinking water",restore the proliferation rate to a level not significantly different from the control diet
same,concentration of NO released in the presence of SNP,[2],not significantly altered
same,proportion of IGF-II-immunoreactive islet cells,"NOD mice [3]; 14 days of age, p<0.01",greater proportion
same,mean islet area,"NOD mice [3]; 14 days of age, p<0.05",significantly smaller
same,proportion of proliferating islet cells,"NOD mice [3]; 14 days of age, p<0.05",greater proportion
same,number of apoptotic cells in islets,"NOD mice [3]; NOD female mice, 14 days of age, vs control animals",reduced nearly in half; also recorded: less apoptotic cells
same,survival,"NOD mice [3]; female and male NOD mice, Log Rank and Wilcoxon tests",improved survival
same,reduction of insulitis,"NOD mice [3]; insulitis appearing at 8 weeks, 2.5% taurine in drinking water during gestation",90%
same,insulin/glucagon ratio,"NOD mice [3]; small islets, NOD female mice",No difference
same,percentage of PCNA positive cells (cell proliferation),"NOD mice [3]; small islets, NOD female mice",significant increase
same,percentage of area stained for glucagon (alpha cells),"NOD mice [3]; small islets, NOD female mice",significantly increased
same,percentage of area stained for insulin (β mass),"NOD mice [3]; small islets, NOD female mice",significant increase
same,age by which 50% of mice became diabetic,"NOD mice [3]; taurine treatment n=51, controls 16 weeks, p<0.001",26 weeks
same,iNOS immunoreactivity,iNOS,no effect
same,proportion of individual islets showing no incidence of insulitis,"NOD mice [4]; female animals exhibiting insulitis, C+Taurine (65% in control diet group)",approximately 50%
same,severity of insulitis when it occurs,"NOD mice [4]; female mice exhibiting insulitis, 12 weeks",not lessened
same,reduction of incidence of insulitis,NOD mice [4]; female mice,80%
same,reduction of incidence of insulitis,NOD mice [4]; male mice,60%
same,"mortality after treatment with SNP, percentage of cell death",fetal islet β cells,significantly diminished
same,rate of IL1β-induced apoptosis in islet cells,"fetal islet cells; C diet group, only the high dose of taurine (3 mmol/l)",decreased significantly
same,number of islet cells positive for IL1β-induced apoptosis,"fetal islet cells; LP diet group, taurine 0.3 mmol/l and 3.0 mmol/l",significantly decreased
same,islet cell apoptosis,"islet cells [5]; LP+Taurine vs control group (C), F21.5, PN12, PN14, PN30","either no difference, or a reduction in apoptosis compared to the control group"
same,islet cell apoptosis,"islet cells [5]; protein-sufficient (C) animals supplemented with taurine, post-natal days 12 and 14",reduction in apoptosis
same,increased apoptotic response of LP fetal islets to SNP or IL1β,fetal islets; co-incubation with taurine in vitro (0.3 or 3.0 mmol/l),reversed
same,SNP-induced and IL 1β-induced apoptosis in fetal islets,fetal islets; dietary taurine in low protein diet combined with high local taurine in vitro,synergistically decrease
same,increased apoptotic response of LP fetal islets to SNP or IL1β,fetal islets; maternal supplementation with taurine in vivo,reversed
